According to patent US5670538A, “Use of prodelphinidins for obtaining medicaments intended for the treatment of arthrosis” (Laboratoires Dolisos, priority 1992, dated 1997):

Experiments:
[1] = Production of OH° hydroxyl radicals (gamma irradiation, KMB substrate, ethylene by gas chromatography); format: biochemical; conditions: for % inhibition of the production of hydroxyl radicals: Substrate: KMB, relative to the controls; for Production of free radicals from KMB, effect in words: Table 22
Experimental: 8. Production of OH° hydroxyl radicals
The products are dissolved in 10 ml flasks at the required concentration in phosphate buffer: 6.6.10^-2 M, pH 7.4 in the presence of alpha keto methiolbutyric acid (10^-3 M: KMB). After the flasks have been hermetically sealed, the samples are irradiated with gamma rays provided by a ^137 Cs source.
The OH° radicals produced by the gamma radiation react with the KMB to produce the ethylene detected by a gas chromatograph. The height of the ethylene peak is proportional to the quantity of free radicals formed in the medium (Weis et al., 1978).

[2] = tested on: human articular chondrocytes; test: Radioimmunoassay of type II collagen (coll. II) produced in tridimensional culture of human chondrocytes; format: cell-based; conditions: for activity at 1 µg/mL / activity at 10 µg/mL / activity at 100 µg/mL: Homo sapiens, Chondrocyte, 288 h, control = 100, read-out: Cumulative release of coll.II over 12 days, %; for Type II collagen in the culture media, effect in words / Collagen II in the clusters, effect in words: 10 and 100 μg/ml; for Coll. II in the clusters / Collagen II in the clusters, effect in words: experiment 397
From the text: The model used for testing the proanthocyanidols, namely the tridimensional culture of human chondrocytes allows chondrorepair to be quantified by the production of matrix substances: type II collagen, proteoglycans, and chondroresorption by the reduction in the levels of prostaglandin E2 and of OH° and O°2 type free radicals produced.
1. Tridimensional culture of human chondrocytes
The technique used has been described in detail (Bassleer et al., 1986).
Briefly, human articular chondrocytes are cultivated in DMEM (Dulbecco's Modification of Eagle's Medium--ICN--Gand, Belgium) with either Ultroser G 1% (GIBCO, Gand, Belgium) or 10% of foetal calf serum (ICN--Gand--Belgium), and 50 μg of ascorbic acid/ml added to it. The cartilage originates from the apparently normal zone of heads of human femur suffering from arthrosis, immediately after an operation carried out to insert a total hip prosthesis; it can also originate from the head of a healthy femur, but which has undergone a traumatism and has had to be replaced. This cartilage is then digested by clostridial collagenase 1 mg/ml (Boehringer-Mannheim, Germany) in a buffer (NaCl 120 mM, CaCl2 1 mM, KCl 5 mM, KH2 PO4 1 mM, NaHCO3 25 mM, glucose 2 mM and Hepes 30 mM, pH 7.4) for 24 hours. After 6 successive washings and centrifugations, the chondrocytes, isolated from their matrix, are cultured in flasks (10^6 cells/2 ml of culture medium) placed on a gyrator (10 rpm). The cultures are kept at 37° C. in an atmosphere of air 95%-CO2 5% (Bassleer et al., 1986). Cultivated under these conditions, after 4 to 5 days the chondrocytes form a tridimensional cluster in each flask. These clusters, which at first have a flocculent appearance, then tend to condense during the culture. After two weeks, their diameter is, in general, from 1 to 2 mm.
The fresh weight of the clusters increases with the duration of the culture, above all during the few first days.
3. Radioimmunoassay of type II collagen (coll. II)
The method for the radioimmunoassay of coll. II has been described in detail (Henrotin et al., 1990). The coll. II is extracted from human articular cartilage according to the technique described by Herbage et al. (1977). The antiserum against coll. II was obtained from rabbits according to the technique of Vaitukaitis et al. (1971).
The assay is carried out by sequential saturation. In the first instance, the radioimmunoassay is carried out in a 0.3 ml volume consisting of 0.2 ml of incubation buffer (PBS-50 mM PO4, 300 mM NaCl, 5 g/l BSA (W/V), 6.7 mM sodium azide, pH 7.4) containing the reference coll. II (0.5 to 500 ng) or the sample to be assayed and 0.1 ml of anti-coll. II antiserum from guinea pigs diluted to 1/5000 (24 hours at 4° C.). In the second instance, 0.1 ml of ^125 I-coll. II tracer labelled according to the iodogenic technique (Salacynski et al., 1979 and diluted so as to obtain 20,000 cpm/0.1 ml) is added. After 24 hours at 4° C., the collagen-antibody complexes are separated from the free radioactive coll. II by the double antibody system (Franchimont et al. 1983). Sequential saturation gives a sensitivity of 3 ng/tube. The accuracy of the method is 10%. The coefficients of the intra- and inter assay variation are 10% and 20% respectively.
The assay is specific to human articular type II collagen.
No cross reaction is obtained with bovine collagen of type I, III or IV.
The culture media are stored at -20° C. in the presence of enzymatic inhibitors (Oegema et al., 1975). These media are assayed by the radio immunological method without any treatment beforehand. The chondrocyte clusters are washed and dissociated with ultrasonics according to the method described for the assay of the PGs. After centrifugation (1500 rpm, 10 minutes), the residue is extracted using 500 mM acetic acid under agitation for 24 hours at 4° C. The supernatant of the homogenate and the extract of the residue are mixed together and assayed after equilibration at pH 7.4 using 4M NaOH.
The recovery of coll. […]

[3] = 1% Ultroser G, culture time 0-4 days, 1 μg/ml
[4] = 1% Ultroser G, culture time 0-4 days, 10 μg/ml
[5] = 1% Ultroser G, culture time 0-4 days, 100 μg/ml
[6] = 1% Ultroser G, culture time 4-8 days, 1 μg/ml
[7] = 1% Ultroser G, culture time 4-8 days, 10 μg/ml
[8] = 1% Ultroser G, culture time 4-8 days, 100 μg/ml
[9] = 1% Ultroser G, culture time 8-12 days, 1 μg/ml
[10] = 1% Ultroser G, culture time 8-12 days, 10 μg/ml
[11] = 1% Ultroser G, culture time 8-12 days, 100 μg/ml
[12] = foetal calf serum, Table 18, 0-4 days, 10 μg/ml
[13] = foetal calf serum, Table 18, 0-4 days, 100 μg/ml
[14] = foetal calf serum, Table 18, 4-8 days, 10 μg/ml
[15] = foetal calf serum, Table 18, 4-8 days, 100 μg/ml
[16] = foetal calf serum, Table 19, 0-4 days, 10 μg/ml
[17] = foetal calf serum, Table 19, 0-4 days, 100 μg/ml
[18] = foetal calf serum, Table 19, 4-8 days, 10 μg/ml
[19] = foetal calf serum, Table 19, 4-8 days, 100 μg/ml
[20] = foetal calf serum, 4-8 days, 10 μg/ml
[21] = foetal calf serum, 4-8 days, 100 μg/ml

| Compound | % inhibition of the production of hydroxyl radicals ([1]; 10^-3 M) | % inhibition of the production of hydroxyl radicals ([1]; 10^-4 M) | % inhibition of the production of hydroxyl radicals ([1]; 10^-5 M) | Production of free radicals from KMB, effect in words [1] | Average concentrations (m ± SD) of type II collagen in the clusters of chondrocytes at the end of 12 days of culture ([2]; 1% Ultroser G, 1 μg/ml) | Cumulative release of coll.II over 12 days, Abs ([2]; 1% Ultroser G, 1 μg/ml) | Average concentrations (m ± SD) of type II collagen in the clusters of chondrocytes at the end of 12 days of culture ([2]; 1% Ultroser G, 10 μg/ml) | Cumulative release of coll.II over 12 days, Abs ([2]; 1% Ultroser G, 10 μg/ml) | Average concentrations (m ± SD) of type II collagen in the clusters of chondrocytes at the end of 12 days of culture ([2]; 1% Ultroser G, 100 μg/ml) | Cumulative release of coll.II over 12 days, Abs ([2]; 1% Ultroser G, 100 μg/ml) | Coll. II released in the culture medium [2, 3] | Coll. II released in the culture medium [2, 4] | Coll. II released in the culture medium [2, 5] | Coll. II released in the culture medium [2, 6] | Coll. II released in the culture medium [2, 7] | Coll. II released in the culture medium [2, 8] | Coll. II released in the culture medium [2, 9] | Coll. II released in the culture medium [2, 10] | Coll. II released in the culture medium [2, 11] | activity at 1 µg/mL ([2]; 1% Ultroser G, 1 μg/ml) | also measured |
| --- | --- | --- | --- | --- | --- | --- | --- | --- | --- | --- | --- | --- | --- | --- | --- | --- | --- | --- | --- | --- | --- |
| Oc1cc(O)c2c(c1)O[C@H](c1cc(O)c(O)c(O)c1)[C@@H](O)[C@@H]2c1c(O)cc(O)c2c1O[C@H](c1cc(O)c(O)c(O)c1)[C@H](O)C2 [Substance Ia, GC-(4 alpha→8) EGC] | 78% | 41% | 22% | significantly inhibits | 105 ± 13 ng per μg of DNA | 482 ng/μg DNA/12 days | 165 ± 21 ng per μg of DNA | 787 ng/μg DNA/12 days | 175 ± 19 ng per μg of DNA | 962 ng/μg DNA/12 days | 233 ± 25 ng/μg DNA/96 h | 301 ± 52 ng/μg DNA/96 h | 462 ± 51 ng/μg DNA/96 h | 147 ± 19 ng/μg DNA/96 h | 259 ± 22 ng/μg DNA/96 h | 311 ± 41 ng/μg DNA/96 h | 102.2 ± 10.96 ng/μg DNA/96 h | 147 ± 21 ng/μg DNA/96 h | 109 ± 23 ng/μg DNA/96 h | 102% | activity at 10 µg/mL ([2]; 1% Ultroser G, 10 μg/ml): 166%; activity at 100 µg/mL ([2]; 1% Ultroser G, 100 μg/ml): 202%; Type II collagen in the culture media, effect in words ([2]; foetal calf serum): increases; Coll. II released in the culture medium [2, 12]: 44.3 ± 2.30 ng/μg DNA/96 H; Coll. II released in the culture medium [2, 13]: 77.0 ± 15.58 ng/μg DNA/96 H; Coll. II released in the culture medium [2, 14]: 34.0 ± 3.11 ng/μg DNA/96 H; Coll. II released in the culture medium [2, 15]: 47.2 ± 5.19 ng/μg DNA/96 H; Coll. II released in the culture medium [2, 16]: 37.4 ± 1.98 ng/μg DNA/96 H; Coll. II released in the culture medium [2, 17]: 44.2 ± 11.6 ng/μg DNA/96 H; Coll. II released in the culture medium [2, 18]: 25.3 ± 2.20 ng/μg DNA/96 H; Coll. II released in the culture medium [2, 19]: 38.2 ± 5.71 ng/μg DNA/96 H; Coll. II in the clusters [2, 20]: 78.8 ± 10.5 ng/μg DNA; Coll. II in the clusters [2, 21]: 114.7 ± 10.55 ng/μg DNA; Collagen II in the clusters, effect in words ([2]; foetal calf serum): An increase in collagen II is observed |
| Oc1cc(O)c2c(c1)O[C@H](c1cc(O)c(O)c(O)c1)[C@@H](O)[C@@H]2c1c(O)cc(O)c2c1O[C@H](c1cc(O)c(O)c(O)c1)[C@@H](O)C2 [Substance Ib, GC-(4 alpha→8) GC] | 80% | 46% | 25% | significantly inhibits | 98 ± 9 ng per μg of DNA | 394 ng/μg DNA/12 days | 121 ± 10 ng per μg of DNA | 572 ng/μg DNA/12 days | 158 ± 16 ng per μg of DNA | 728 ng/μg DNA/12 days | 222 ± 26 ng/μg DNA/96 h | 322 ± 33 ng/μg DNA/96 h | 392 ± 46 ng/μg DNA/96 h | 112 ± 19 ng/μg DNA/96 h | 158 ± 14 ng/μg DNA/96 h | 190 ± 22 ng/μg DNA/96 h | 59.9 ± 0.6 ng/μg DNA/96 h | 91.7 ± 6.1 ng/μg DNA/96 h | 137.7 ± 13.4 ng/μg DNA/96 h | 107% | activity at 10 µg/mL ([2]; 1% Ultroser G, 10 μg/ml): 155%; activity at 100 µg/mL ([2]; 1% Ultroser G, 100 μg/ml): 197%; Type II collagen in the culture media, effect in words ([2]; foetal calf serum): increases; Coll. II released in the culture medium [2, 12]: 41.4 ± 0.51 ng/μg DNA/96 H; Coll. II released in the culture medium [2, 13]: 81.1 ± 20.2 ng/μg DNA/96 H; Coll. II released in the culture medium [2, 14]: 33.3 ± 4.61 ng/μg DNA/96 H; Coll. II released in the culture medium [2, 15]: 55.0 ± 17.21 ng/μg DNA/96 H; Coll. II released in the culture medium [2, 16]: 38.2 ± 2.60 ng/μg DNA/96 H; Coll. II released in the culture medium [2, 17]: 56.3 ± 12.41 ng/μg DNA/96 H; Coll. II released in the culture medium [2, 18]: 29.6 ± 3.44 ng/μg DNA/96 H; Coll. II released in the culture medium [2, 19]: 46.3 ± 2.61 ng/μg DNA/96 H; Coll. II in the clusters [2, 20]: 81.6 ± 16.00 ng/μg DNA; Coll. II in the clusters [2, 21]: 113.2 ± 18.25 ng/μg DNA; Collagen II in the clusters, effect in words ([2]; foetal calf serum): An increase in collagen II is observed |
